Minimal effective concentration data for 27 molecules are collected here from patent US8778964B2, “Hydroxy-substituted imidazo[1,2-a]-pyridinecarboxamides and their use” (Bayer Pharma Aktiengesellschaft, priority 2012, dated 2014).

This assay has as its system recombinant guanylate cyclase reporter cell line. Kind of assay: Action on recombinant guanylate cyclase reporter cell line (MEC). The assay is classed as cell-based. Conditions: in some cases mean values obtained from individual determinations. The procedure:
B-2. Action on Recombinant Guanylate Cyclase Reporter Cell Line
The cellular action of the compounds according to the invention is determined on a recombinant guanylate cyclase reporter cell line, as described in F. Wunder et al., Anal. Biochem. 339, 104-112 (2005).
Representative values (MEC=minimal effective concentration) for the compounds according to the invention are shown in the following table (in some cases as mean values obtained from individual determinations): […]
As to `CCC(O)CNC(=O)c1c(C)nc2c(OCCC(C(F)(F)F)C(F)(F)F)cc(C)cn12` (racemic) [Example 174, rac-N-(2-hydroxybutyl)-2,6-dimethyl-8-[4,4,4-trifluoro-3-(trifluoromethyl)butoxy]imidazo[1,2-a]pyridine-3-carboxamide], the minimal effective concentration was 3 µM.
As for `Cc1cc(OCCC(C(F)(F)F)C(F)(F)F)c2nc(C)c(C(=O)NCC(O)c3ccc(Cl)cc3)n2c1` (racemic) [Example 175, rac-N-[2-(4-chlorophenyl)-2-hydroxyethyl]-2,6-dimethyl-8-[4,4,4-trifluoro-3-(trifluoromethyl)butoxy]imidazo[1,2-a]pyridine-3-carboxamide], the minimal effective concentration is 3 µM.
`Cc1cc(OCC2CC(F)(F)C2)c2nc(C)c(C(=O)NC(CCCC(F)(F)F)C(C)(C)O)n2c1` (racemic) [Example 176, rac-8-[(3,3-Difluorocyclobutyl)methoxy]-2,6-dimethyl-N-(7,7,7-trifluoro-2-hydroxy-2-methylheptan-3-yl)imidazo[1,2-a]pyridine-3-carboxamide]: the minimal effective concentration worked out at 3 µM.
For `Cc1nc2c(OCC3CCCCC3)cccn2c1C(=O)N[C@@H]1CCC[C@@H]1O` (relative stereo) [Example 81, 8-(cyclohexylmethoxy)-N-[cis-2-hydroxycyclopentyl]-2-methylimidazo[1,2-a]-pyridine-3-carboxamide], the minimal effective concentration came to 0.65 µM.
`Cc1nc2c(OCc3c(F)cccc3F)cccn2c1C(=O)NC(CO)CCC(O)C(F)(F)F` (single isomer, unassigned) [Example 138, 8-[(2,6-Difluorobenzyl)oxy]-2-methyl-N-(6,6,6-trifluoro-1,5-dihydroxyhexan-2-yl)imidazo[1,2-a]-pyridine-3-carboxamide]: the minimal effective concentration came out at 0.1 µM.
`Cc1nc2c(OCc3c(F)cccc3F)cccn2c1C(=O)NC(C)C(O)C(F)(F)F` (single isomer, unassigned) [Example 143, 8-[(2,6-Difluorobenzyl)oxy]-2-methyl-N-(4,4,4-trifluoro-3-hydroxybutan-2-yl)imidazo[1,2-a]-pyridine-3-carboxamide]: the minimal effective concentration was 0.03 µM.
The value for `Cc1nc2c(OCc3c(F)cccc3F)cccn2c1C(=O)NC(C)C(O)C(F)(F)F` (single isomer, unassigned) [Example 144, 8-[(2,6-Difluorobenzyl)oxy]-2-methyl-N-(4,4,4-trifluoro-3-hydroxybutan-2-yl)imidazo[1,2-a]-pyridine-3-carboxamide] was 0.3 µM; that for `Cc1nc2c(OCc3c(F)cccc3F)cccn2c1C(=O)NC(C)C(O)C(F)(F)F` (single isomer, unassigned) [Example 145, 8-[(2,6-Difluorobenzyl)oxy]-2-methyl-N-(4,4,4-trifluoro-3-hydroxybutan-2-yl)imidazo[1,2-a]-pyridine-3-carboxamide] was above 10 µM.
Under `Cc1nc2c(OCc3c(F)cccc3F)cccn2c1C(=O)NC(C)C(O)C(F)(F)F` (single isomer, unassigned) [Example 146, 8-[(2,6-Difluorobenzyl)oxy]-2-methyl-N-(4,4,4-trifluoro-3-hydroxybutan-2-yl)imidazo[1,2-a]-pyridine-3-carboxamide] stands 1.0 µM.
For the molecule `Cc1cc(OCCC(C)C)c2nc(C)c(C(=O)NC(CCCC(F)(F)F)C(C)(C)O)n2c1` (single isomer, unassigned; ent-2) [Example 168, ent-2,6-Dimethyl-8-(3-methylbutoxy)-N-(7,7,7-trifluoro-2-hydroxy-2-methylheptan-3-yl)imidazo-[1,2-a]pyridine-3-carboxamide], the minimal effective concentration worked out at 3 µM.
The value for `Cc1nc2c(OCc3c(F)cccc3F)cccn2c1C(=O)NC(CO)c1ccc(F)cc1` (single isomer, unassigned; ent-8) [Example 107, ent-8-[(2,6-Difluorobenzyl)oxy]-N-[1-(4-fluorophenyl)-2-hydroxyethyl]-2-methylimidazo[1,2-a]-pyridine-3-carboxamide] was 0.1 µM; that for `Cc1nc2c(OCc3c(F)cccc3F)cccn2c1C(=O)NCC(O)C(F)(F)F` (single isomer, unassigned; ent-8) [Example 109, ent-8-[(2,6-Difluorobenzyl)oxy]-2-methyl-N-(3,3,3-trifluoro-2-hydroxypropyl)imidazo[1,2-a]-pyridine-3-carboxamide] was 0.1 µM.
For the molecule `Cc1nc2c(OCc3c(F)cccc3F)cccn2c1C(=O)NC(CO)CC(F)(F)F` (single isomer, unassigned; ent-8) [Example 121, ent-8-[(2,6-Difluorobenzyl)oxy]-2-methyl-N-(4,4,4-trifluoro-1-hydroxybutan-2-yl)imidazo[1,2-a]-pyridine-3-carboxamide], the minimal effective concentration was 0.03 µM.
The value for `Cc1nc2c(OCc3c(F)cccc3F)cccn2c1C(=O)NC(CO)CCC(F)(F)F` (single isomer, unassigned; ent-8) [Example 122, ent-8-[(2,6-Difluorobenzyl)oxy]-2-methyl-N-(5,5,5-trifluoro-1-hydroxypentan-2-yl)imidazo[1,2-a]-pyridine-3-carboxamide] was 0.03 µM.
On to `Cc1nc2c(OCc3c(F)cccc3F)cccn2c1C(=O)NC(CO)CCCC(F)(F)F` (single isomer, unassigned; ent-8) [Example 123, ent-8-[(2,6-Difluorobenzyl)oxy]-2-methyl-N-(6,6,6-trifluoro-1-hydroxyhexan-2-yl)imidazo[1,2-a]-pyridine-3-carboxamide], for which the minimal effective concentration worked out at 0.03 µM.
The value for `Cc1nc2c(OCc3c(F)cccc3F)cccn2c1C(=O)NC(CC(F)(F)F)C(C)(C)O` (single isomer, unassigned; ent-8) [Example 154, ent-8-[(2,6-Difluorobenzyl)oxy]-2-methyl-N-(1,1,1-trifluoro-4-hydroxy-4-methylpentan-3-yl)-imidazo[1,2-a]pyridine-3-carboxamide (enantiomer B)] was 0.03 µM.
As for `Cc1nc2c(OCc3c(F)cccc3F)cccn2c1C(=O)NC(CCC(F)(F)F)C(C)(C)O` (single isomer, unassigned; ent-8) [Example 155, ent-8-[(2,6-Difluorobenzyl)oxy]-2-methyl-N-(6,6,6-trifluoro-2-hydroxy-2-methylhexan-3-yl)-imidazo[1,2-a]pyridine-3-carboxamide (enantiomer B)], the minimal effective concentration was found to be 0.1 µM.
The value for `Cc1nc2c(OCc3c(F)cccc3F)cccn2c1C(=O)NC(CCCC(F)(F)F)C(C)(C)O` (single isomer, unassigned; ent-8) [Example 156, ent-8-[(2,6-Difluorobenzyl)oxy]-2-methyl-N-(7,7,7-trifluoro-2-hydroxy-2-methylheptan-3-yl)-imidazo[1,2-a]pyridine-3-carboxamide (enantiomer B)] was 0.03 µM; that for `CCOCC(CO)NC(=O)c1c(C)nc2c(OCc3c(F)cccc3F)cccn12` (single isomer, unassigned; ent-8) [Example 161, ent-8-[(2,6-Difluorobenzyl)oxy]-N-(1-ethoxy-3-hydroxypropan-2-yl)-2-methylimidazo[1,2-a]-pyridine-3-carboxamide (enantiomer A)] was 1 µM; that for `CCCCC(NC(=O)c1c(C)nc2c(OC(C)c3c(F)cccc3F)cc(C)cn12)C(C)(C)O` (single isomer, unassigned; ent-8) [Example 171, ent-8-[1-(2,6-Difluorophenyl)ethoxy]-N-(2-hydroxy-2-methylheptan-3-yl)-2,6-dimethylimidazo-[1,2-a]pyridine-3-carboxamide] was 1 µM.
For the molecule `CCCC[C@H](CO)NC(=O)c1c(C)nc2c(OCc3c(F)cccc3F)cccn12` [Example 1, 8-[(2,6-Difluorobenzyl)oxy]-N-[(2R)-1-hydroxyhexan-2-yl]-2-methylimidazo[1,2-a]pyridine-3-carboxamide], the minimal effective concentration stood at 0.05 µM.
On to `CCCC[C@H](CO)NC(=O)c1c(C)nc2c(OCc3c(F)ccc(F)c3F)cccn12` [Example 2, N-[(2R)-1-hydroxyhexan-2-yl]-2-methyl-8-[(2,3,6-trifluorobenzyl)oxy]imidazo[1,2-a]pyridine-3-carboxamide], for which the minimal effective concentration is 0.03 µM.
`CCCC[C@H](CO)NC(=O)c1c(C)nc2c(OCc3c(F)cccc3Cl)cccn12` [Example 3, 8-[(2-chloro-6-fluorobenzyl)oxy]-N-[(2R)-1-hydroxyhexan-2-yl]-2-methylimidazo[1,2-a]pyridine-3-carboxamide]: the minimal effective concentration is 0.1 µM.
For the molecule `CCCC[C@H](CO)NC(=O)c1c(C)nc2c(OCc3ccccc3Cl)cccn12` [Example 4, 8-[(2-chlorobenzyl)oxy]-N-[(2R)-1-hydroxyhexan-2-yl]-2-methylimidazo[1,2-a]pyridine-3-carboxamide], the minimal effective concentration was 0.1 µM.
Under `CCCC[C@H](CO)NC(=O)c1c(C)nc2c(OCc3ccccc3F)cccn12` [Example 5, 8-[(2-fluorobenzyl)-oxy]-N-[(2R)-1-hydroxyhexan-2-yl]-2-methylimidazo[1,2-a]pyridine-3-carboxamide] stands 0.1 µM.
Turning to `CCCC[C@H](CO)NC(=O)c1c(C)nc2c(OCc3cccc(F)c3)cccn12` [Example 6, 8-[(3-fluorobenzyl)-oxy]-N-[(2R)-1-hydroxyhexan-2-yl]-2-methylimidazo[1,2-a]pyridine-3-carboxamide], the minimal effective concentration turned out to be 0.1 µM.
In the case of `CCCC[C@H](CO)NC(=O)c1c(C)nc2c(OCc3c(F)c(F)cc(F)c3F)cccn12` [Example 7, N-[(2R)-1-hydroxyhexan-2-yl]-2-methyl-8-[(2,3,5,6-tetrafluorobenzyl)oxy]imidazo[1,2-a]pyridine-3-carboxamide], the minimal effective concentration stood at 0.3 µM.
